Assay results reported in US20240417387A1, “SULFONYLPIPERAZINYL COMPOUNDS FOR TREATMENT OF BACTERIAL INFECTIONS” (Hoffmann-La Roche Inc., priority 2021, published 2024).
Converted amounts (≈) assume the structure as drawn.

How the values were obtained:
[1] = test system: Escherichia coli BW 25113; assay: Minimal Inhibitory Concentration (MIC) broth dilution assay, E. coli BW 25113; assay type: cell-based; conditions: Escherichia coli, BW25113, 20 hours at 35° C., CAMHB, read-out: MIC E. coli K-12 BW 25113
Experimental: (§1) The antibacterial activity of molecules was evaluated against the commonly used quality control strain Escherichia coli BW 25113, Escherichia coli ATCC 25922 and the rifampin-resistant mutant strain Klebsiella pneumonia ATCC 43816. Escherichia co/i BW 25113 was obtained from the Coli Genetic Stock Center (CGSC) (strain 7636). Both Escherichia coli ATCC 25922 and Klebsiella pneumonia ATCC 43816 were originally derived from human clinical samples and are available from ATCC (American Type Culture Collection). The in vitro potency of compounds to inhibit Escherichia coli (BW 25113, ATCC 25922) and Klebsiella pneumonia (ATCC 43816) growth was assessed by the MIC (Minimal Inhibitory Concentration) broth dilution method. Specifically compound dilutions were prepared from 10 mM DMSO stock solutions as follows: i) serial 2-fold dilution in 20 μL DMSO were prepared in a master plate (Greiner, Cat No: 651201), ii) 180 μL sterile distilled water was added to each aliquot and iii) 10 μL diluted compounds were transferred into a new assay plate (Costar, 3599).
(§2) Vials of each test microorganisms were maintained frozen in the vapor phase of a liquid nitrogen freezer. Single-use frozen vials of the three strains Escherichia coli BW 25113, Escherichia coli ATCC 25922 (KWTKSTTK, 0335K) and Klebsiella pneumonia ATCC 43816, with predetermined CFU/mL, were taken out from the freezer, thawed at room temperature, and diluted in Cation-Adjusted Mueller Hinton Broth (CAMVIHB) to achieve a final inoculum of 5×10^5 CFU/mL. 90 μL bacteria containing broth was dispensed to the assay plate containing the pre-dispensed compound dilutions and mixed by pipetting 5 times.
(§3) Then the assay plates were incubated for 20 hours at 35° C. in ambient air. Following incubation, the MIC […], the lowest concentration of drug that inhibits visible growth of the microorganism was read with the help of a magnification mirror and recorded.

[2] = Human microsome stability assay; assay type: in vitro ADME; conditions: human liver microsomes 0.5 mg/mL, 37° C., pH 7.4, NADPH regenerating system
Experimental: The human microsomal stability assay is used for early assessment of metabolic stability of a test compound in human liver microsomes.
Human liver microsomes (Cat.NO.: 452117, Corning, USA) were preincubated with test compound for 10 minutes at 37° C. in 100 mM potassium phosphate buffer, pH 7.4. The reactions were initiated by adding NADPH regenerating system. The final incubation mixtures contained 1 µM test compound, 0.5 mg/mL liver microsomal protein, 1 mM MgCl2, 1 mM NADP, 1 unit/mL isocitric dehydrogenase and 6 mM isocitric acid in 100 mM potassium phosphate buffer, pH 7.4. After incubation times of 0, 3, 6, 9, 15 and 30 minutes at 37° C., 300 μL of cold acetonitrile (including internal standard) was added to 100 μL incubation mixture to terminate the reaction. Following precipitation and centrifugation, the amount of compound remaining in the samples were determined by LC-MS/MS. Controls of no NADPH regenerating system at zero and 30 minutes were also prepared and analyzed. […] (Human microsome clearance: <7 mL/min/kg: low; 7-16.2 mL/min/kg: medium; >16.2 mL/min/kg: high)

[3] = test system: Escherichia coli ATCC 25922; assay: Minimal Inhibitory Concentration (MIC) broth dilution assay, E. coli ATCC 25922; assay type: cell-based; conditions: Escherichia coli, ATCC25922, 20 h, read-out: MIC E. coli ATCC 25922
Experimental: as §1, §2, §3

[4] = target: Escherichia coli UDP-2,3-diacylglucosamine hydrolase (LpxH) (Escherichia coli (strain K12), UniProt P43341); assay: Enzymatic IC50 assay of Escherichia coli LpxH (UMP/CMP-Glo luminescence); assay type: biochemical; conditions: Enzymatic IC50 against Escherichia coli LpxH; read-out: IC50 (converted)
Sequence of Escherichia coli UDP-2,3-diacylglucosamine hydrolase (LpxH) (P43341 whole entry): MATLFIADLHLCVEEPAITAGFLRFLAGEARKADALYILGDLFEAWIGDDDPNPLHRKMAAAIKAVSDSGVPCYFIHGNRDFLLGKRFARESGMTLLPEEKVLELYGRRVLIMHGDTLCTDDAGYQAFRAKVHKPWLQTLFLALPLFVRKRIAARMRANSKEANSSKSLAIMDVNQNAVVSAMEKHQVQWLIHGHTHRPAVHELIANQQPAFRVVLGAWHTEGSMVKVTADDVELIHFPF
Experimental: The inhibitory potency of compounds of Escherichia coli UDP-2,3-diacylglucosamine hydrolase (LpxH) was determined in an enzymatic assay. UDP-2,3-diacylglucosamine (UDP-DAG) was purified from the Caulobacter crescentus LpxI D225A mutant protein that contained a tightly bound UDP-DAG molecule. The enzyme was diluted using assay buffer containing 50 mM NaCl, 20 mM Tris-HCl pH7.5, 2.5 mM MnCl2, 0.01% Triton X-100.1 mg/mL BSA, and the final concentration is 2 nM. The compounds were diluted by Agilent liquid handler Bravo, the compound's serial dilution dose ranges from 100 μM to 1.7 nM. Then the enzyme and compounds mixture were incubated at room temperature for 10 mins. The enzymatic assay was started by adding UDP-DAG (FAC is 5 μM) and incubated for 20 mins at room temperature. The plate was then heated to 95° C. for 15 mins on a water batch to stop the reaction. The hydrolysis of UDP-DAG by LpxH yielded 2,3-diacylglucosamine 1-phosphate (lipid X) and UMP, which was converted to ATP and quantified by the luciferase reaction using the UMP/CMP-Glo™ Glycosyltransferase Assay kit from Promega. The compound's inhibitory effect of LpxH is determined by measuring the light change using a luminometer (Envision).

[5] = test system: Klebsiella pneumonia ATCC 43816; assay: Minimal Inhibitory Concentration (MIC) broth dilution assay, K. pneumonia ATCC 43816; assay type: cell-based; conditions: Klebsiella pneumoniae, ATCC43816, 20 hours at 35° C., CAMHB, read-out: MIC K. p ATCC 43816
Experimental: as §1, §2, §3

Structure (SMILES)	MIC [1] [µg/mL]	Clearance of Human microsome [2] [mL/min/kg]	MIC [3] [µg/mL]	IC50 [4] [nM]	MIC [5] [µg/mL]
N[C@@H]1C[C@H](N)CN(CCCNC(=O)[C@H]2CC[C@H](C(F)(F)c3cc(Cl)nc(N4CCN(S(=O)(=O)c5ccc(N6C[C@H](N)CC6=O)cc5)CC4)c3)CC2)C1 [Example 049, Trans-4-[[2-chloro-6-[4-[4-[(4R)-4-amino-2-oxo-pyrrolidin-1-yl]phenyl]sulfonylpiperazin-1-yl]-4-pyridyl]-difluoro-methyl]-N-[3-[cis-3,5-diamino-1-piperidyl]propyl]cyclohexanecarboxamide]	0.6 (≈ 0.783 µM)	7.38	1.2 (≈ 1.57 µM)	9.13	1.2 (≈ 1.57 µM)
N[C@@H]1CC(=O)N(c2ccc(S(=O)(=O)N3CCN(c4cc(C(F)(F)[C@H]5CC[C@H](C(=O)NCC6CNC6)CC5)cc(Cl)n4)CC3)cc2)C1 [Example 002, Trans-4-[[2-[4-[4-[(4R)-4-amino-2-oxo-pyrrolidin-1-yl]phenyl]sulfonylpiperazin-1-yl]-6-chloro-4-pyridyl]-difluoro-methyl]-N-(azetidin-3-ylmethyl)cyclohexanecarboxamide]	1.8 (≈ 2.65 µM)	6.15	1.8 (≈ 2.65 µM)	< 2.94	1.8 (≈ 2.65 µM)
NCCN1CCN(C(=O)[C@H]2CC[C@H](C(F)(F)c3cc(Cl)nc(N4CCN(S(=O)(=O)c5ccc(N6C[C@H](N)CC6=O)cc5)CC4)c3)CC2)CC1 [Example 013, Trans-(4R)-4-amino-1-[4-[4-[4-[[4-[4-(2-aminoethyl)piperazine-1-carbonyl]cyclohexyl]-difluoro-methyl]-6-chloro-2-pyridyl]piperazin-1-yl]sulfonylphenyl]pyrrolidin-2-one]	2.6 (≈ 3.59 µM)	6.77	2.6 (≈ 3.59 µM)	4.15	1.3 (≈ 1.8 µM)
C[N+](C)(C)CCCNC(=O)c1ccc(C(F)(F)c2cc(Cl)nc(N3CCN(S(=O)(=O)c4ccc(N5C[C@H](N)CC5=O)cc4)CC3)c2)cc1 [Example 037]	0.73	6.66	1.5	< 2.84	1.5
NCCNC(=O)c1cnc(C(F)(F)c2cc(Cl)nc(N3CCN(S(=O)(=O)c4ccc(N5C[C@H](N)CC5=O)cc4)CC3)c2)cn1 [Example 024, N-(2-aminoethyl)-5-[[2-chloro-6-[4-[4-[(4R)-4-amino-2-oxo-pyrrolidin-1-yl]phenyl]sulfonylpiperazin-1-yl]-4-pyridyl]-difluoro-methyl]pyrazine-2-carboxamide]	0.69 (≈ 1.06 µM)	11.22	0.69 (≈ 1.06 µM)	4.61	0.69 (≈ 1.06 µM)
NCC[N+]1(CCNC(=O)[C@H]2CC[C@H](C(F)(F)c3cc(Cl)nc(N4CCN(S(=O)(=O)c5ccc(N6C[C@H](N)CC6=O)cc5)CC4)c3)CC2)CCCC1 [Example 074, Trans-N-[2-[1-(2-aminoethyl)pyrrolidin-1-ium-1-yl]ethyl]-4-[[2-[4-[4-[(4R)-4-amino-2-oxo-pyrrolidin-1-yl]phenyl]sulfonylpiperazin-1-yl]-6-chloro-4-pyridyl]-difluoro-methyl]cyclohexanecarboxamide]	1.9	6.15	1.9	39.9	1.9
NCCCNC(=O)[C@H]1CC[C@H](C(F)(F)c2cc(Cl)nc(N3CCN(S(=O)(=O)c4ccc(N5C[C@H](N)CC5=O)nc4)CC3)c2)CC1 [Example 061, Trans-N-(3-aminopropyl)-4-[[2-chloro-6-[4-[[6-[(4R)-4-amino-2-oxo-pyrrolidin-1-yl]-3-pyridyl]sulfonyl]piperazin-1-yl]-4-pyridyl]-difluoro-methyl]cyclohexanecarboxamide]	1.1 (≈ 1.64 µM)	6.15	1.1 (≈ 1.64 µM)	2.99	1.1 (≈ 1.64 µM)
NCCCNC(=O)[C@H]1CC[C@@H](C(F)(F)c2cc(Cl)nc(N3CCN(S(=O)(=O)c4ccc(N5C[C@H](N)CC5=O)cc4)CC3)c2)CC1 [Example 031]	1.7 (≈ 2.54 µM)	6.15	2.2 (≈ 3.29 µM)	7.48	2.2 (≈ 3.29 µM)
NCCCNC(=O)[C@H]1CC[C@H](C(F)(F)c2cc(Cl)nc(N3CCN(S(=O)(=O)c4ccc(N5CC(N6CCNCC6)CC5=O)cc4)CC3)c2)CC1 (stereo partly drawn) [Example 060, Trans-N-(3-aminopropyl)-4-[[2-chloro-6-[4-[4-(2-oxo-4-piperazin-1-yl-pyrrolidin-1-yl)phenyl]sulfonylpiperazin-1-y1]-4-pyridyl]-difluoro-methyl]cyclohexanecarboxamide]	2.4 (≈ 3.26 µM)	8.12	1.8 (≈ 2.44 µM)	< 2.71	1.2 (≈ 1.63 µM)
NCC(O)CNC(=O)c1cnc(C(F)(F)c2cc(Cl)nc(N3CCN(S(=O)(=O)c4ccc(N5C[C@H](N)CC5=O)cc4)CC3)c2)cn1 (stereo partly drawn) [Example 022, N-(3-amino-2-hydroxy-propyl)-5-[[2-chloro-6-[4-[4-[(4R)-4-amino-2-oxo-pyrrolidin-1-yl]phenyl]sulfonylpiperazin-1-yl]-4-pyridyl]-difluoro-methyl]pyrazine-2-carboxamide]	1.4 (≈ 2.06 µM)	6.15	0.71 (≈ 1.04 µM)	5.88	0.71 (≈ 1.04 µM)
NCCCNC(=O)C1CCC(C(F)(F)c2cc(Cl)nc(N3CCN(S(=O)(=O)c4ccc(N5C[C@H](N)CC5=O)cc4)CC3)c2)C1 (stereo partly drawn) [Example 035, N-(3-aminopropyl)-3-[[2-chloro-6-[4-[4-[(4R)-4-amino-2-oxo-pyrrolidin-1-yl]phenyl]sulfonylpiperazin-1-yl]-4-pyridyl]-difluoro-methyl]cyclopentanecarboxamide]	–	8.90	–	45.9	–
NCCCNC(=O)[C@H]1CC[C@H](C(F)(F)c2cc(Cl)nc(N3CCC(S(=O)(=O)c4ccc(N5C[C@H](N)CC5=O)cc4)CC3)c2)CC1 [Example 062, Trans-N-(3-aminopropyl)-4-[[2-chloro-6-[4-[4-[(4R)-4-amino-2-oxo-pyrrolidin-1-yl]phenyl]sulfonyl-1-piperidyl]-4-pyridyl]-difluoro-methyl]cyclohexanecarboxamide]	–	7.74	–	33	–
NCCCNC(=O)C12CC(C(F)(F)c3cc(Cl)nc(N4CCN(S(=O)(=O)c5ccc(N6C[C@H](N)CC6=O)cc5)CC4)c3)(C1)C2 [Example 040]	–	6.15	–	6.13	–
